Assay [1] addresses EGFR del19/T790M/C797S (Homo sapiens, UniProt P00533, C797S/DEL746-750/T790M). Put plainly: Biochemical EGFR kinase assay (Lance Ultra TR-FRET), triple mutant del19/T790M/C797S. The gist of the method: (§1)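 Step 1: compound in kinase buffer, 0.003–10 μM. Step 2: kinase reaction 1 h at room temperature. Step 4: TR-FRET read at 615/665 nm; IC50 calculated.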
Assay [2] concerns the target EGFR del19/C797S (Homo sapiens, UniProt P00533, C797S/DEL746-750). Put plainly: Biochemical EGFR kinase assay (Lance Ultra TR-FRET), double mutant del19/C797S. The gist of the method:
as §1
(Time-resolved FRET reads energy transfer from a long-lived donor to a nearby acceptor.)

The target in assay [3] is EGFR L858R/T790M/C797S (Homo sapiens, UniProt P00533, C797S/L858R/T790M). As to the kind of experiment: Biochemical EGFR kinase assay (Lance Ultra TR-FRET), triple mutant L858R/T790M/C797S. The gist of the method: as §1
In assay [4] the target is EGFR wildtype (Homo sapiens, UniProt P00533). As to the kind of experiment: Biochemical EGFR kinase assay (Lance Ultra TR-FRET), wildtype. In short, it runs like this:
as §1

For assay [5], the target named is EGFR L858R/C797S (Homo sapiens, UniProt P00533, C797S/L858R). Put plainly: Biochemical EGFR kinase assay (Lance Ultra TR-FRET), double mutant L858R/C797S. The gist of the method:
as §1

The mark [6] stands for this setting: ATP at Km, read-out: IC50 del19/T790M/C797S, Km ATP.
Setting [7] is: IC50 del19/T790M/C797S, 100 μM ATP.
Where [8] appears, read: ATP at Km, read-out: IC50 del19/C797S, Km ATP.
[9] abbreviates: ATP at Km, read-out: IC50 L858R/T790M/C797S, Km ATP.
Where [10] appears, read: IC50 L858R/T790M/C797S, 100 μM ATP.
Where [11] appears, read: ATP at Km, read-out: IC50 WT, Km ATP.
Setting [12] is: ATP at Km, read-out: IC50 L858R/C797S, Km ATP.
[13] abbreviates: IC50 del19/T790M/C797S (nM) 100 μM ATP, 100 μM ATP.
The mark [14] stands for this setting: Km ATP, read-out: IC50 del19/T790M/C797S (nM) Km ATP.
Setting [15] is: IC50 del19/C797S (nM) 100 μM ATP, 100 μM ATP.
[16] abbreviates: Km ATP, read-out: IC50 del19/C797S (nM) Km ATP.
Setting [17] is: IC50 L858R/T790M/C797S (nM) 100 μM ATP, 100 μM ATP.
Setting [18] is: Km ATP, read-out: IC50 L858R/T790M/C797S (nM) Km ATP.
The mark [19] stands for this setting: IC50 WT (nM) 100 μM ATP, 100 μM ATP.
The mark [20] stands for this setting: Km ATP, read-out: IC50 WT (nM) Km ATP.
Where [21] appears, read: IC50 L858R/C797S (nM) 100 μM ATP, 100 μM ATP.
The mark [22] stands for this setting: Km ATP, read-out: IC50 L858R/C797S (nM) Km ATP.

pIC50: −log10 of the molar value. Where two headings read alike, the source gives them in different places. A value given as a limit tells only on which side of the number the result lay.

Chain of EGFR wildtype (P00533 25-1210): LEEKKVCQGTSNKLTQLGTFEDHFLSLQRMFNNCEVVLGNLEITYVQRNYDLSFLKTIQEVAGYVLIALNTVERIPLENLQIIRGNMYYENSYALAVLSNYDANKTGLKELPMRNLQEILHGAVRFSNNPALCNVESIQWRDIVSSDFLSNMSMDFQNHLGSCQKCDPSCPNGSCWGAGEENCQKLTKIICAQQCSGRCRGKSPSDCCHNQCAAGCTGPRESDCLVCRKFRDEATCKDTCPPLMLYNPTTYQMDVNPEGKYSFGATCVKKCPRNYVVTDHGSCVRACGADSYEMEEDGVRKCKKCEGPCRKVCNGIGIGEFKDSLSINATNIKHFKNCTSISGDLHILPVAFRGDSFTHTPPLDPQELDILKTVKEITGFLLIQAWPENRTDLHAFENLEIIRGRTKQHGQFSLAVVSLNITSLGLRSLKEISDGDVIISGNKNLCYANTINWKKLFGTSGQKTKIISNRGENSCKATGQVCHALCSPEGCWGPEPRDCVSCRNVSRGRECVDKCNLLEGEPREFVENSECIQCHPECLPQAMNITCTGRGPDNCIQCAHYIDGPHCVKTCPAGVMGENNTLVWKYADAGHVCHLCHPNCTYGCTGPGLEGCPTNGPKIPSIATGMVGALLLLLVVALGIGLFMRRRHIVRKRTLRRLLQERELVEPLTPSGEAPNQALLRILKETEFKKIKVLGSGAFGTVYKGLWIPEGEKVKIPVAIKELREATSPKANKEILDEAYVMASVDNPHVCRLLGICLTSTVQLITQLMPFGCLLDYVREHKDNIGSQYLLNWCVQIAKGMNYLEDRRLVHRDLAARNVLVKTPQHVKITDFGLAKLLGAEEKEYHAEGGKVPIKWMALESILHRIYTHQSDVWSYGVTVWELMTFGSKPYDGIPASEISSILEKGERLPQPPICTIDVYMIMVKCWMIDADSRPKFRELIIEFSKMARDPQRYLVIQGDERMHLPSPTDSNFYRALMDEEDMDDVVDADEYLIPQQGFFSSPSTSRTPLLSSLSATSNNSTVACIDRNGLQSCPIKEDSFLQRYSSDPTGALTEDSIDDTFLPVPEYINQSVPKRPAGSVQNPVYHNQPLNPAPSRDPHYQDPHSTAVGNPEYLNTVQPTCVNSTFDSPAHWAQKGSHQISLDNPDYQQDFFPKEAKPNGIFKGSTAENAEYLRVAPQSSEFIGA
Chain of EGFR L858R/T790M/C797S (P00533 25-1210 T790M/C797S/L858R): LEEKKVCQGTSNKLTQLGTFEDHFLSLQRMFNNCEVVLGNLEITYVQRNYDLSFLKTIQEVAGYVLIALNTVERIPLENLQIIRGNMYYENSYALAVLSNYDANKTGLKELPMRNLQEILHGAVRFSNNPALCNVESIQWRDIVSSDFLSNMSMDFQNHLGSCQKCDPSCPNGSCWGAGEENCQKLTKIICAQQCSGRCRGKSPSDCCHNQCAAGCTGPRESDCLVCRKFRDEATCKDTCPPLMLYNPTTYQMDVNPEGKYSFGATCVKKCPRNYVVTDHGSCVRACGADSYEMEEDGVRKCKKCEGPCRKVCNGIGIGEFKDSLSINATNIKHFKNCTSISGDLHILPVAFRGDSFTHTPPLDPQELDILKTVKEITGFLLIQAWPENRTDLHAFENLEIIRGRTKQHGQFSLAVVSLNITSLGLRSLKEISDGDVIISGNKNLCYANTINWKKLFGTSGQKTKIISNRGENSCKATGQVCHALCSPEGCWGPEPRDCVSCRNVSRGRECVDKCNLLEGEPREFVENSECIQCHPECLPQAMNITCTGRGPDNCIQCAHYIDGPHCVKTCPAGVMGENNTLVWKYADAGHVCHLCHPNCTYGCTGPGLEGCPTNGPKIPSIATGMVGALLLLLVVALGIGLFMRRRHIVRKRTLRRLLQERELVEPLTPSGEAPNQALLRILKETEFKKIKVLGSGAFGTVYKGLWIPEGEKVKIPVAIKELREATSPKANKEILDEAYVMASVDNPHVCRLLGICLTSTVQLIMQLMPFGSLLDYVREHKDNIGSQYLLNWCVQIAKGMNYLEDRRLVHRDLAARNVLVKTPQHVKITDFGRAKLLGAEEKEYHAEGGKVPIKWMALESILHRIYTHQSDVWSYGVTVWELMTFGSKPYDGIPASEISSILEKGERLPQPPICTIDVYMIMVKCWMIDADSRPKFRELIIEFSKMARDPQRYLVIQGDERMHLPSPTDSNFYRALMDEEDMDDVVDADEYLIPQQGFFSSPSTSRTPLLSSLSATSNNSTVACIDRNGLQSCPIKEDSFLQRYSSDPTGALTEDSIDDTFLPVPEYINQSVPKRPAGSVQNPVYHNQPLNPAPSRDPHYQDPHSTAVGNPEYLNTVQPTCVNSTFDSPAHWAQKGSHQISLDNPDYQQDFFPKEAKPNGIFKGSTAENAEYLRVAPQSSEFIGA
Chain of EGFR del19/T790M/C797S (P00533 with tags, fused parts or gaps DEL746-750/T790M/C797S): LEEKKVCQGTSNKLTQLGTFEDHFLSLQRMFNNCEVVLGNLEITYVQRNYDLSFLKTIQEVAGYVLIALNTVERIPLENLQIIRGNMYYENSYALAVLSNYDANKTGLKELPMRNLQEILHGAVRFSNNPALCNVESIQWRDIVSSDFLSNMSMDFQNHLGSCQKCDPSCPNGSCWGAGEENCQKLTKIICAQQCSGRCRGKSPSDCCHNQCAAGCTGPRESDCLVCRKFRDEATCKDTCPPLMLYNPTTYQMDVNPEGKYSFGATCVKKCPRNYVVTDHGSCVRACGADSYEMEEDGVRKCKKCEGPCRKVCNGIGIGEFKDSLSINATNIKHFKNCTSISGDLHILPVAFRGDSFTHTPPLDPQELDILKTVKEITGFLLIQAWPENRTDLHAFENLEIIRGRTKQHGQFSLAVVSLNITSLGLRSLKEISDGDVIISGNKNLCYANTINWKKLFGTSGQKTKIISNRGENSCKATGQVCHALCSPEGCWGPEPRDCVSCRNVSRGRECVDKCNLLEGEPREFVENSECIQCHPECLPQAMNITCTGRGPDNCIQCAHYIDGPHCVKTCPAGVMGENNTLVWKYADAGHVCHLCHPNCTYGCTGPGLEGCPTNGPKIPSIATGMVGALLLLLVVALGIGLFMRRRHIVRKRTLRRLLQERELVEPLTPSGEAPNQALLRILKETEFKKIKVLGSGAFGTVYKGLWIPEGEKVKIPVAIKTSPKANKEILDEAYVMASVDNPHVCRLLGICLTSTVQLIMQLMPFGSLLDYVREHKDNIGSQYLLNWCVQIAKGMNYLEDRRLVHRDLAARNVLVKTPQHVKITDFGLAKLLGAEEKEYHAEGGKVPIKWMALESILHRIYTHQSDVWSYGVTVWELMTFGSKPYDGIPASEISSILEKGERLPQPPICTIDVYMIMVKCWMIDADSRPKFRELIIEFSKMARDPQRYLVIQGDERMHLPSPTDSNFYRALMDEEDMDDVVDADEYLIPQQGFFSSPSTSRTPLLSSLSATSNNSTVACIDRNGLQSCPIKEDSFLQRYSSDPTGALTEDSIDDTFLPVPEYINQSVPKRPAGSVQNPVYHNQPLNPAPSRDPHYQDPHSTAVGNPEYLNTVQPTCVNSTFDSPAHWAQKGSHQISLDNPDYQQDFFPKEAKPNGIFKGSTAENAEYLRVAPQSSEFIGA
Chain of EGFR L858R/C797S (P00533 25-1210 C797S/L858R): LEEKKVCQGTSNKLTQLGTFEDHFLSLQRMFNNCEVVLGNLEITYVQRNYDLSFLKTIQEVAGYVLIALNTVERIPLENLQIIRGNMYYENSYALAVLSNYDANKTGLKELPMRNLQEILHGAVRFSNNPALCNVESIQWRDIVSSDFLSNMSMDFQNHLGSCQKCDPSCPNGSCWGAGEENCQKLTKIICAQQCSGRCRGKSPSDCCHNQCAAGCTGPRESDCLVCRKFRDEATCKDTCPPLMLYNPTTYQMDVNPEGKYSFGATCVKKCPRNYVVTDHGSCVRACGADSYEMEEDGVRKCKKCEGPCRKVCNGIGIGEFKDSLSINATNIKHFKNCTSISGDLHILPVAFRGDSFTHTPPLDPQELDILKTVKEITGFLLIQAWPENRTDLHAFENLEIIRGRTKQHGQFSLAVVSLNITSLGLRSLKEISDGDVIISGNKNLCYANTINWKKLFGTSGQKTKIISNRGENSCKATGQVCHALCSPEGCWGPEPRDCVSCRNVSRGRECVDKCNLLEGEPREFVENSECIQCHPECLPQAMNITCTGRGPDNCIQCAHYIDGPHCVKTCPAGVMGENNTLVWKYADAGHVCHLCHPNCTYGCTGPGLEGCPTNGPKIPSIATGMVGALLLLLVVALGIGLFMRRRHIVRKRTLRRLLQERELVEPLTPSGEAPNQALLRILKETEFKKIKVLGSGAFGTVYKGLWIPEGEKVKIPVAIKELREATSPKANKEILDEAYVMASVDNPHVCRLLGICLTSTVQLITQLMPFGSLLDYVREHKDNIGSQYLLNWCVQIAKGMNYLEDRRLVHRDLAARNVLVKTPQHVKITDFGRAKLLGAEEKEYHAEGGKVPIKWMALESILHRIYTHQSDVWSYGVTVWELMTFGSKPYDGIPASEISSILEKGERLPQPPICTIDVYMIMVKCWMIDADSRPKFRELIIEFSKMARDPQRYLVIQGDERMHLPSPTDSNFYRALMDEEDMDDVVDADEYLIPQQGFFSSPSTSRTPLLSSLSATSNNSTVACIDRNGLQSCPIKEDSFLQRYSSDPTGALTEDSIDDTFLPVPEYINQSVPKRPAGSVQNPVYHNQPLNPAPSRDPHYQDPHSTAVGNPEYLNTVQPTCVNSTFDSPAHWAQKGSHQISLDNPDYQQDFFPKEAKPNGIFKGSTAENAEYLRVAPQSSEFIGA

Consider `CN(C)CCNc1ccnc(-c2cnc(Nc3ccnc(-c4cnn(S(=O)(=O)C5CC5)c4)n3)cc2N[C@H]2CC[C@@](C)(O)CC2)c1` [Example 276, (1s,4s)-4-((6′-((2-(1-(Cyclopropylsulfonyl)-1H-pyrazol-4-yl)pyrimidin-4-yl)amino)-4-((2-(dimethylamino)ethyl)amino)-[2,3′-bipyridin]-4′-yl)amino)-1-methylcyclohexan-1-ol], for which the pIC50 in assay [1] (setting [6]) was 9.10; in assay [1] (setting [7]), 8.96; in assay [2] (setting [8]), 9.52; in assay [2] (IC50 del19/C797S, 100 μM ATP) it was 9.15; in assay [3] (setting [9]), 9.70; in assay [3] (setting [10]), 9.30. For the same compound, the pIC50 is 8.54 in assay [4] (setting [11]); 5.60 in assay [4] (IC50 WT, 100 μM ATP); 9.15 in assay [5] (setting [12]); 8.64 in assay [5] (IC50 L858R/C797S, 100 μM ATP).

Regarding `COC1CN(c2ccc(-c3cnc(Nc4ccnc(-c5cnn(S(=O)(=O)C6CC6)c5)n4)cc3N[C@H]3CC[C@@H](C(C)(C)O)CC3)nc2)C1` [Example 92, 2-((1s,4s)-4-((6′-((2-(1-(Cyclopropylsulfonyl)-1H-pyrazol-4-yl)pyrimidin-4-yl)amino)-5-(3-methoxyazetidin-1-yl)-[2,3′-bipyridin]-4′-yl)amino)cyclohexyl)propan-2-ol], the IC50 in assay [1] (setting [13]) was determined as 1.6 nM; in assay [1] (setting [14]) it was 1 nM; in assay [2] (setting [15]) it was 7.2 nM; in assay [2] (setting [16]) it was 4.4 nM; in assay [3] (setting [17]), 2.3 nM; in assay [3] (setting [18]), 1.4 nM. Moreover, the IC50 turned out to be 172 nM in assay [4] (setting [19]), 0.1 nM in assay [4] (setting [20]), 78.8 nM in assay [5] (setting [21]) and 4.7 nM in assay [5] (setting [22]).

Turning to `C[C@]1(O)CC[C@@H](Nc2cc(Nc3ccnc(-c4cnn(S(=O)(=O)C5CC5)c4)n3)ncc2-c2ccc(CN3CCC(F)(F)CC3)cn2)CC1` [Example 33, (1s,4s)-4-((6′-((2-(1-(Cyclopropylsulfonyl)-1H-pyrazol-4-yl)pyrimidin-4-yl)amino)-5-((4,4-difluoropiperidin-1-yl)methyl)-[2,3′-bipyridin]-4′-yl)amino)-1-methylcyclohexan-1-ol], the IC50 in assay [1] (setting [13]) was determined as 3.9 nM; in assay [1] (setting [14]) it was 2.6 nM; in assay [2] (setting [15]), 1.3 nM; in assay [2] (setting [16]), 2.1 nM; in assay [3] (setting [17]), 3.1 nM; in assay [3] (setting [18]), 1.7 nM. For the same compound, the IC50 in assay [4] (setting [19]) worked out at 813 nM; in assay [4] (setting [20]), 7.9 nM; in assay [5] (setting [21]), 29.3 nM; in assay [5] (setting [22]), 1.7 nM.

Regarding `CC(C)(O)[C@H]1CC[C@@H](Nc2nccc(-c3cnc(Nc4ccnc(-c5cnn(S(=O)(=O)C6CC6)c5)n4)cc3N[C@H]3CC[C@@H](C(C)(C)O)CC3)n2)CC1` [Example 193, 2-((1s,4s)-4-((4-(6-((2-(1-(Cyclopropylsulfonyl)-1H-pyrazol-4-yl)pyrimidin-4-yl)amino)-4-(((1s,4s)-4-(2-hydroxypropan-2-yl)cyclohexyl)amino)pyridin-3-yl)pyrimidin-2-yl)amino)cyclohexyl)propan-2-ol], the pIC50 is 8.52 in assay [1] (setting [7]); 7.63 in assay [2] (IC50 del19/C797S, 100 μM ATP); 8.42 in assay [3] (setting [10]); less than 5.00 in assay [4] (IC50 WT, 100 μM ATP); 6.73 in assay [5] (IC50 L858R/C797S, 100 μM ATP).

Regarding `COC1CN(c2ccc(-c3cnc(Nc4ccnc(-c5cnn(S(=O)(=O)C6CC6)c5)n4)cc3N[C@H]3CC[C@@H](CO)CC3)nc2)C1` [Example 91, ((1s,4s)-4-((6′-((2-(1-(Cyclopropylsulfonyl)-1H-pyrazol-4-yl)pyrimidin-4-yl)amino)-5-(3-methoxyazetidin-1-yl)-[2,3′-bipyridin]-4′-yl)amino)cyclohexyl)methanol], the IC50 in assay [1] (setting [13]) was found to be 1.3 nM; in assay [1] (setting [14]) it was 0.5 nM; in assay [2] (setting [15]) it was 2.8 nM; in assay [2] (setting [16]) it was 0.9 nM; in assay [3] (setting [17]), 1.1 nM; in assay [3] (setting [18]) it was 0.9 nM. For the same compound, the IC50 in assay [4] (setting [19]) is greater than 10000 nM; in assay [4] (setting [20]), 2.5 nM; in assay [5] (setting [21]), 9.7 nM; in assay [5] (setting [22]), 0.8 nM.

On to `CC(C)(O)[C@H]1CC[C@@H](Nc2cc(Nc3ccnc(-c4cnn(S(=O)(=O)C5CC5)c4)n3)ncc2-c2ccc(CC(F)(F)F)cn2)CC1` [Example 220, 2-((1s,4s)-4-((6′-((2-(1-(Cyclopropylsulfonyl)-1H-pyrazol-4-yl)pyrimidin-4-yl)amino)-5-(2,2,2-trifluoroethyl)-[2,3′-bipyridin]-4′-yl)amino)cyclohexyl)propan-2-ol], for which the pIC50 in assay [1] (setting [6]) is 8.07; in assay [1] (setting [7]), 8.64; in assay [2] (setting [8]), 7.56; in assay [2] (IC50 del19/C797S, 100 μM ATP) it was 7.52; in assay [3] (setting [9]) it was 8.27; in assay [3] (setting [10]) it was 8.03. For the same compound, the pIC50 in assay [4] (setting [11]) is 6.94; in assay [4] (IC50 WT, 100 μM ATP), less than 5.00; in assay [5] (setting [12]), 7.59; in assay [5] (IC50 L858R/C797S, 100 μM ATP), 6.54.

Regarding `CS(=O)(=O)c1ccc(-c2cnc(Nc3ccnc(-c4cnn(S(=O)(=O)C5CC5)c4)n3)cc2N[C@H]2CC[C@@](C)(O)CC2)nc1` [Example 156, (1s,4s)-4-((6′-((2-(1-(Cyclopropylsulfonyl)-1H-pyrazol-4-yl)pyrimidin-4-yl)amino)-5-(methylsulfonyl)-[2,3′-bipyridin]-4′-yl)amino)-1-methylcyclohexan-1-ol], the pIC50 in assay [1] (setting [6]) is 10.00; in assay [1] (setting [7]), 9.70; in assay [2] (setting [8]) it was 9.52; in assay [2] (IC50 del19/C797S, 100 μM ATP) it was 9.52; in assay [3] (setting [9]), 10.00; in assay [3] (setting [10]) it was 9.70. The pIC50 in assay [4] (IC50 WT, 100 μM ATP) is less than 5.00; in assay [5] (setting [12]), 9.40.

Regarding `C[C@]1(O)CC[C@@H](Nc2cc(Nc3ccnc(-c4cnn(S(=O)(=O)C5CC5)c4)n3)ncc2-c2cccc(NCCO)n2)CC1` [Example 285, (1s,4s)-4-((6′-((2-(1-(Cyclopropylsulfonyl)-1H-pyrazol-4-yl)pyrimidin-4-yl)amino)-6-((2-hydroxyethyl)amino)-[2,3′-bipyridin]-4′-yl)amino)-1-methylcyclohexan-1-ol], the pIC50 in assay [1] (setting [6]) was 10.00; in assay [1] (setting [7]), 9.70; in assay [2] (setting [8]), 9.40; in assay [2] (IC50 del19/C797S, 100 μM ATP), 9.05; in assay [3] (setting [10]), 9.70; in assay [4] (setting [11]), 8.11. The pIC50 is 5.20 in assay [4] (IC50 WT, 100 μM ATP); 9.30 in assay [5] (setting [12]); 7.85 in assay [5] (IC50 L858R/C797S, 100 μM ATP).

As to `O=S(=O)(C1CC1)n1cc(-c2nccc(Nc3cc(N[C@H]4CC[C@@H](CO)CC4)c(-c4ccc(N5CCCC5)cn4)cn3)n2)cn1` [Example 81, ((1s,4s)-4-((6′-((2-(1-(Cyclopropylsulfonyl)-1H-pyrazol-4-yl)pyrimidin-4-yl)amino)-5-(pyrrolidin-1-yl)-[2,3′-bipyridin]-4′-yl)amino)cyclohexyl)methanol], the IC50 in assay [1] (setting [13]) is 3.1 nM; in assay [1] (setting [14]), 2.4 nM; in assay [2] (setting [15]) it was 19 nM; in assay [2] (setting [16]), 4 nM; in assay [3] (setting [17]), 6 nM; in assay [3] (setting [18]), 2 nM. Besides, the IC50 was 3650 nM in assay [4] (setting [19]), 11.7 nM in assay [4] (setting [20]), 13 nM in assay [5] (setting [21]) and 3.3 nM in assay [5] (setting [22]).

`O=S(=O)(C1CC1)n1cc(-c2nccc(Nc3cc(NC4CCC(CO)CC4)c(-c4ccc(C(O)C(F)(F)F)cn4)cn3)n2)cn1` (stereo not drawn) [Example 227, 1-(6′-((2-(1-(Cyclopropylsulfonyl)-1H-pyrazol-4-yl)pyrimidin-4-yl)amino)-4′-(((1s,4s)-4-(hydroxymethyl)cyclohexyl)amino)-[2,3′-bipyridin]-5-yl)-2,2,2-trifluoroethan-1-ol]: the pIC50 is 9.05 in assay [1] (setting [6]); 8.72 in assay [2] (setting [8]); 8.15 in assay [2] (IC50 del19/C797S, 100 μM ATP); 9.40 in assay [3] (setting [9]); 9.10 in assay [3] (setting [10]); 8.28 in assay [4] (setting [11]). The pIC50 in assay [4] (IC50 WT, 100 μM ATP) is 6.08; in assay [5] (setting [12]) it was 8.60; in assay [5] (IC50 L858R/C797S, 100 μM ATP), 8.00.

`CC(C)(O)[C@H]1CC[C@@H](Nc2cc(Nc3ccnc(-c4cnn(S(=O)(=O)C5CC5)c4)n3)ncc2-c2ccc(N3CCC(F)(F)CC3)nn2)CC1` [Example 71, 2-((1s,4s)-4-((2-((2-(1-(Cyclopropylsulfonyl)-1H-pyrazol-4-yl)pyrimidin-4-yl)amino)-5-(6-(4,4-difluoropiperidin-1-yl)pyridazin-3-yl)pyridin-4-yl)amino)cyclohexyl)propan-2-ol]: the IC50 in assay [1] (setting [13]) is 4.5 nM; in assay [2] (setting [15]) it was 44.2 nM; in assay [3] (setting [17]), 4.1 nM; in assay [4] (setting [19]), greater than 10000 nM; in assay [5] (setting [21]) it was 355 nM.

(Values after patent publication US12258328B2, “6-membered heteroaryl-containing aminopyridine compounds as EGFR inhibitors” (YUHAN CORPORATION, priority 2021, dated 2025).)
